# According to patent US20120122870A1, “Treatment Of Ischemia-Reperfusion Injury” (MUSC FOUNDATION FOR RESEARCH DEVELOPMENT, priority 2009, published 2012):
# “Also recorded” adds a separate entry of the source.
# Tests used:
# [1] = tested on: severe kidney ischemia-reperfusion in mice; test: Ischemia-reperfusion of the kidney (severe model), survival, BUN and creatinine; type: in vivo
# Procedure: ABC294640 promotes survival in a severe model of kidney damage. To evaluate the protective effects of ABC294640 in a more severe IR model, mice were treated with ABC294640 (50 mg/kg in 0.1 mL by oral gavage) or vehicle (0.1 ml in 0.375% Tween-80 in PBS), and then the right kidney was ligated and removed and the left kidney pedicle was clamped for 45 min before reperfusion. Animals were assessed daily for postoperative health, including scoring for weight loss, activity and appearance. Following severe IR, vehicle-treated mice consistently died or were sacrificed because of severe ill health on post-surgery Day 2 (FIG. 3). In marked contrast, mice that received 50 mg/kg ABC294640 preoperatively all survived the IR insult.
# ABC294640 protects against renal failure in a severe model of kidney damage. Blood was drawn from the severe IR mice at sacrifice, and levels of blood urea nitrogen (BUN) and creatinine were determined as indicators of renal function (FIG. 4). As expected, serum creatinine and BUN levels were highly elevated in the vehicle-treated IR animals (clear bars) compared with sham animals (hatched bars), indicative of post-surgical renal failure.
# Ischemia-reperfusion of the kidney (severe model): The irreversible model was performed in a similar manner to the reversible model described above with the exception that the right kidney pedicle was tied off and the kidney removed and the left kidney was clamped for 45 minutes.
# [2] = tested on: neutrophil influx into the kidney (MPO activity); test: Kidney myeloperoxidase (MPO) activity after severe kidney IR; type: in vivo, mice; conditions: 50 mg/kg
# Procedure: Myeloperoxidase (MPO) activity, which is reflective of neutrophil influx into the tissue, is often used as measure of local inflammation, and was assayed in the kidneys of the mice from FIG. 4. […] Therefore, the level of kidney MPO and expected inflammatory damage in vehicle-treated animals correlates with the observed reduction in renal function.
# hepatic warm IR in mice = test: Serum ALT and total bilirubin after hepatic warm IR; type: in vivo
# Procedure: Liver warm ischemia was induced as described above. Blood was collected at 6 h after reperfusion, and serum alanine aminotransferase (ALT) activity and bilirubin were measured. Before ischemia, serum ALT levels were 22 U/L. At 6 h after reperfusion, ALT levels increased to ˜19,000 U/L in livers exposed to 1 h-ischemia (FIG. 12A). Pretreatment of the animals with ABC294640 decreased ALT levels after IR to ˜1,600 U/L, which reflects a >90% decrease compared to livers without ABC294640 treatment (FIG. 12A). […] Bilirubin accumulates in the blood when liver function is poor. Serum total bilirubin was 0.26 mg/dL in mice subjected to the sham operation. Bilirubin increased 3-fold 6 h after reperfusion (FIG. 12B). […] Clinical chemistry: Blood samples were collected from the vena cava at various times, and ALT and bilirubin were measured enzymatically using analytic kits from Pointe Scientific.
# [3] = tested on: non-heart-beating liver transplantation in Lewis rats; test: Non-heart-beating donor liver transplantation, graft necrosis (H+E); type: in vivo; conditions: 30-min aorta clamping, 4-hour cold storage; grafts harvested 18 h after implantation
# Text: ABC294640 improves the outcome of non-heart-beating liver transplantation. The severe donor organ shortage could be reduced by the use of marginal livers for transplantation. Currently only livers from brain-dead, heart-beating donors (HBD) are used for transplantation since liver grafts from non-heart-beating donors frequently fail after transplantation. Development of a method to improve survival of grafts from NHBD is critical to expand the usable liver donor pool. Grafts from NHBD experience longer warm ischemia before liver retrieval, which likely upregulates SK to a higher extent compared to those from HBD. Therefore, we performed a pilot study to test if ABC294640 improves the outcome of non-heart-beating liver transplantation. Livers were explanted from Lewis rats after 30-min of aorta clamping to mimic non-heart-beating donation and implanted after 4-hour storage in UW solution at 0-1° C. […] In cold-stored, untransplanted livers from NHBD, although some cell swelling was observed, no necrosis occurred (FIG. 19, upper right). After transplantation of livers from HBD, small focal necrosis occurred (FIG. 19, middle left). […] Necrotic areas in sections were quantified by image analysis using an Image-1/AT image acquisition and analysis system (Universal Imaging Corp., West Chester, Pa.) incorporating an Axioskop 50 microscope (Carl Zeiss, Inc., Thornwood, NY) and a 10× objective lens.
# [4] = severe kidney IR, 48 hr (2 days) post-surgery
# [5] = severe kidney IR, post-surgery Day 10
structure (smiles),measurement,setting,value
"O=C(NCc1ccncc1)C12CC3CC(C1)CC(c1ccc(Cl)cc1)(C3)C2 [ABC294640, 3-(4-chlorophenyl)-N-(pyridin-4-ylmethyl)adamantane-1-carboxamide]",survival after severe kidney IR,"[1]; 50 mg/kg oral gavage preoperatively, right kidney removed, left pedicle clamped 45 min",all survived
same,survival time after severe kidney IR,"[1]; 50 mg/kg oral gavage, right kidney removed, left kidney clamped 45 minutes",at least 9 days
same,postoperative health at sacrifice,"[1]; severe kidney IR, 50 mg/kg, post-surgery Day 9, 50 mg/kg",in good health; also recorded: appeared robust and were gaining weight
same,BUN vs vehicle,[1]; [4],significantly reduced
same,serum creatinine vs vehicle,[1]; [4],significantly reduced
same,BUN,[1]; [5],returned to normal; also recorded: returning to normal
same,serum creatinine,[1]; [5],returned to normal; also recorded: returning to normal
same,increase in kidney MPO activity (neutrophil infiltration),[2],reduces neutrophil infiltration; also recorded: completely blocked
same,liver function / hepatic IR injury (in words),hepatic warm IR in mice; 1 h-ischemia plus 6 h-reperfusion,markedly decreases hepatic IR injury; also recorded: improves liver function
same,decrease of ALT compared to livers without treatment,"hepatic warm IR in mice; 1 h-ischemia, 6 h after reperfusion",> 90%
same,accumulation of serum total bilirubin,hepatic warm IR in mice; 6 h after reperfusion,almost completely reversed
same,serum ALT levels after IR,"hepatic warm IR in mice; pretreatment 50 mg/kg, 1 h-ischemia, 6 h after reperfusion","~1,600 U/L"
same,necrotic areas in transplanted livers from non-heart-beating donors,[3],substantially decreased; also recorded: attenuates necrosis
